Data from US20220281848A1, “PYRAZOLE-SUBSTITUTED PYRROLIDINONES AS HERBICIDES” (FMC Corporation, priority 2019, published 2022).

Test system: plants
Assay: Test D pre-emergence, other plants of Tables D1 and D3
Type: in vivo
Conditions: for damage to plant (100=total damage to plant; 0=no damage to plant), ABUTH / damage to plant (100=total damage to plant; 0=no damage to plant), BIDPI / damage to plant (100=total damage to plant; 0=no damage to plant), BRAPL / damage to plant (100=total damage to plant; 0=no damage to plant), CYPES / damage to plant (100=total damage to plant; 0=no damage to plant), DIGSA / damage to plant (100=total damage to plant; 0=no damage to plant), ECHCG / damage to plant (100=total damage to plant; 0=no damage to plant), ELEIN / damage to plant (100=total damage to plant; 0=no damage to plant), EPHHL / damage to plant (100=total damage to plant; 0=no damage to plant), GLXMA / damage to plant (100=total damage to plant; 0=no damage to plant), IPOHE / damage to plant (100=total damage to plant; 0=no damage to plant), ORYSA / damage to plant (100=total damage to plant; 0=no damage to plant), PANMI / damage to plant (100=total damage to plant; 0=no damage to plant), SETFA / damage to plant (100=total damage to plant; 0=no damage to plant), SIDSP / damage to plant (100=total damage to plant; 0=no damage to plant), SORVU: preemergent, 20 DAA
Method in brief: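 Damage was rated visually from 0 (none) to 100 (total), at 20 DAA for pre-emergence and 15 d for post-emergence. Plants grew from safener-treated seed in a glasshouse at 24/18° C. or 20/16° C. day/night, 65% humidity, watered twice daily.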

[1] = pre-emergence, rate 15, 20 DAA, 100=total damage, 0=no damage

CCn1nc([C@H]2CN(C)C(=O)[C@@H]2C(=O)Nc2cccc(F)c2F)c2ccc(F)cc21 [Compound 4]
damage to plant (100=total damage to plant; 0=no damage to plant), ABUTH (rate 15): 0 | damage to plant (100=total damage to plant; 0=no damage to plant), ABUTH (rate 30): 0 | damage to plant (100=total damage to plant; 0=no damage to plant), ABUTH (rate 60): 0 | damage to plant (100=total damage to plant; 0=no damage to plant), ABUTH (rate 130): 0 | damage to plant (100=total damage to plant; 0=no damage to plant), ABUTH (rate 250): 0 | damage to plant (100=total damage to plant; 0=no damage to plant), ABUTH (rate 500): 0 | damage to plant (100=total damage to plant; 0=no damage to plant), BIDPI (rate 15): 0 | damage to plant (100=total damage to plant; 0=no damage to plant), BIDPI (rate 30): 0 | damage to plant (100=total damage to plant; 0=no damage to plant), BIDPI (rate 60): 0 | damage to plant (100=total damage to plant; 0=no damage to plant), BIDPI (rate 130): 0 | damage to plant (100=total damage to plant; 0=no damage to plant), BIDPI (rate 250): 0 | damage to plant (100=total damage to plant; 0=no damage to plant), BIDPI (rate 500): 0 | damage to plant (100=total damage to plant; 0=no damage to plant), BRAPL (rate 15): 40 | damage to plant (100=total damage to plant; 0=no damage to plant), BRAPL (rate 30): 40 | damage to plant (100=total damage to plant; 0=no damage to plant), BRAPL (rate 60): 60 | damage to plant (100=total damage to plant; 0=no damage to plant), BRAPL (rate 130): 80 | damage to plant (100=total damage to plant; 0=no damage to plant), BRAPL (rate 250): 90 | damage to plant (100=total damage to plant; 0=no damage to plant), BRAPL (rate 500): 90 | damage to plant (100=total damage to plant; 0=no damage to plant), CYPES (rate 15): 0 | damage to plant (100=total damage to plant; 0=no damage to plant), CYPES (rate 30): 0 | damage to plant (100=total damage to plant; 0=no damage to plant), CYPES (rate 60): 0 | damage to plant (100=total damage to plant; 0=no damage to plant), CYPES (rate 130): 0 | damage to plant (100=total damage to plant; 0=no damage to plant), CYPES (rate 250): 0 | damage to plant (100=total damage to plant; 0=no damage to plant), CYPES (rate 500): 0 | damage to plant (100=total damage to plant; 0=no damage to plant), DIGSA (rate 15): 0 | damage to plant (100=total damage to plant; 0=no damage to plant), DIGSA (rate 30): 60 | damage to plant (100=total damage to plant; 0=no damage to plant), DIGSA (rate 60): 80 | damage to plant (100=total damage to plant; 0=no damage to plant), DIGSA (rate 130): 90 | damage to plant (100=total damage to plant; 0=no damage to plant), DIGSA (rate 250): 90 | damage to plant (100=total damage to plant; 0=no damage to plant), DIGSA (rate 500): 90 | damage to plant (100=total damage to plant; 0=no damage to plant), ECHCG (rate 15): 0 | damage to plant (100=total damage to plant; 0=no damage to plant), ECHCG (rate 30): 40 | damage to plant (100=total damage to plant; 0=no damage to plant), ECHCG (rate 60): 80 | damage to plant (100=total damage to plant; 0=no damage to plant), ECHCG (rate 130): 90 | damage to plant (100=total damage to plant; 0=no damage to plant), ECHCG (rate 250): 90 | damage to plant (100=total damage to plant; 0=no damage to plant), ECHCG (rate 500): 90 | damage to plant (100=total damage to plant; 0=no damage to plant), ELEIN (rate 15): 0 | damage to plant (100=total damage to plant; 0=no damage to plant), ELEIN (rate 30): 0 | damage to plant (100=total damage to plant; 0=no damage to plant), ELEIN (rate 250): 10 | damage to plant (100=total damage to plant; 0=no damage to plant), ELEIN (rate 500): 10 | damage to plant (100=total damage to plant; 0=no damage to plant), EPHHL (rate 15): 0 | damage to plant (100=total damage to plant; 0=no damage to plant), EPHHL (rate 30): 0 | damage to plant (100=total damage to plant; 0=no damage to plant), EPHHL (rate 60): 0 | damage to plant (100=total damage to plant; 0=no damage to plant), EPHHL (rate 130): 0 | damage to plant (100=total damage to plant; 0=no damage to plant), EPHHL (rate 250): 0 | damage to plant (100=total damage to plant; 0=no damage to plant), EPHHL (rate 500): 10 | damage to plant (100=total damage to plant; 0=no damage to plant), GLXMA (rate 15): 0 | damage to plant (100=total damage to plant; 0=no damage to plant), GLXMA (rate 30): 0 | damage to plant (100=total damage to plant; 0=no damage to plant), GLXMA (rate 60): 0 | damage to plant (100=total damage to plant; 0=no damage to plant), GLXMA (rate 130): 0 | damage to plant (100=total damage to plant; 0=no damage to plant), GLXMA (rate 250): 0 | damage to plant (100=total damage to plant; 0=no damage to plant), GLXMA (rate 500): 0 | damage to plant (100=total damage to plant; 0=no damage to plant), IPOHE (rate 15): 0 | damage to plant (100=total damage to plant; 0=no damage to plant), IPOHE (rate 30): 0 | damage to plant (100=total damage to plant; 0=no damage to plant), IPOHE (rate 60): 0 | damage to plant (100=total damage to plant; 0=no damage to plant), IPOHE (rate 130): 0 | damage to plant (100=total damage to plant; 0=no damage to plant), IPOHE (rate 250): 0 | damage to plant (100=total damage to plant; 0=no damage to plant), IPOHE (rate 500): 10 | damage to plant (100=total damage to plant; 0=no damage to plant), ORYSA (rate 15): 0 | damage to plant (100=total damage to plant; 0=no damage to plant), ORYSA (rate 30): 0 | damage to plant (100=total damage to plant; 0=no damage to plant), ORYSA (rate 60): 0 | damage to plant (100=total damage to plant; 0=no damage to plant), ORYSA (rate 130): 0 | damage to plant (100=total damage to plant; 0=no damage to plant), ORYSA (rate 250): 0 | damage to plant (100=total damage to plant; 0=no damage to plant), ORYSA (rate 500): 0 | damage to plant (100=total damage to plant; 0=no damage to plant), PANMI (rate 15): 0 | damage to plant (100=total damage to plant; 0=no damage to plant), PANMI (rate 30): 0 | damage to plant (100=total damage to plant; 0=no damage to plant), PANMI (rate 60): 0 | damage to plant (100=total damage to plant; 0=no damage to plant), PANMI (rate 130): 0 | damage to plant (100=total damage to plant; 0=no damage to plant), PANMI (rate 250): 20 | damage to plant (100=total damage to plant; 0=no damage to plant), PANMI (rate 500): 40 | damage to plant (100=total damage to plant; 0=no damage to plant), SETFA (rate 15): 10 | damage to plant (100=total damage to plant; 0=no damage to plant), SETFA (rate 30): 70 | damage to plant (100=total damage to plant; 0=no damage to plant), SETFA (rate 60): 70 | damage to plant (100=total damage to plant; 0=no damage to plant), SETFA (rate 130): 80 | damage to plant (100=total damage to plant; 0=no damage to plant), SETFA (rate 250): 90 | damage to plant (100=total damage to plant; 0=no damage to plant), SETFA (rate 500): 90 | damage to plant (100=total damage to plant; 0=no damage to plant), SIDSP (rate 15): 0 | damage to plant (100=total damage to plant; 0=no damage to plant), SIDSP (rate 30): 0 | damage to plant (100=total damage to plant; 0=no damage to plant), SIDSP (rate 60): 0 | damage to plant (100=total damage to plant; 0=no damage to plant), SIDSP (rate 500): 0 | damage to plant (100=total damage to plant; 0=no damage to plant), SORVU (rate 15): 0 | damage to plant (100=total damage to plant; 0=no damage to plant), SORVU (rate 30): 0 | damage to plant (100=total damage to plant; 0=no damage to plant), SORVU (rate 60): 10 | damage to plant (100=total damage to plant; 0=no damage to plant), SORVU (rate 130): 10 | damage to plant (100=total damage to plant; 0=no damage to plant), SORVU (rate 250): 40 | damage to plant (100=total damage to plant; 0=no damage to plant), SORVU (rate 500): 50 | damage to plant, ALOMY [1]: 0 | damage to plant, AVEFA [1]: 0
